Measurements from PubChem BioAssay (NCI).
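The compound was tested at five concentrations on cells cultured in 96-well plates, with a 48-hour exposure period. TGI is the concentration that stops growth completely.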 Calls of active or inactive are those of the source. Rule as the data show it: active = GI50 below about 0.43 µM; inactive = the rest.

Legend:
Assay in all cases: NCI anticancer screen, dose series, 48 h
786-0 renal = tested on: 786-0 renal
A549 NSCLC = tested on: A549 NSCLC
ACHN renal = tested on: ACHN renal
CAKI-1 renal = tested on: CAKI-1 renal
CCRF-CEM leukemia = tested on: CCRF-CEM leukemia
COLO 205 colon = tested on: COLO 205 colon
DLD-1 colon = tested on: DLD-1 colon
DMS 114 small cell lung = tested on: DMS 114 small cell lung
DMS 273 small cell lung = tested on: DMS 273 small cell lung
EKVX NSCLC = tested on: EKVX NSCLC
HCC-2998 colon = tested on: HCC-2998 colon
HCT-15 colon = tested on: HCT-15 colon
HL-60(TB) leukemia = tested on: HL-60(TB) leukemia
HOP-62 NSCLC = tested on: HOP-62 NSCLC
HOP-92 NSCLC = tested on: HOP-92 NSCLC
HT29 colon = tested on: HT29 colon
IGROV1 ovarian = tested on: IGROV1 ovarian
K-562 leukemia = tested on: K-562 leukemia
KM12 colon = tested on: KM12 colon
KM20L2 colon = tested on: KM20L2 colon
LOX IMVI melanoma = tested on: LOX IMVI melanoma
LXFL 529 NSCLC = tested on: LXFL 529 NSCLC
M14 melanoma = tested on: M14 melanoma
M19-MEL melanoma = tested on: M19-MEL melanoma
MALME-3M melanoma = tested on: MALME-3M melanoma
MOLT-4 leukemia = tested on: MOLT-4 leukemia
NCI-H226 lung = tested on: NCI-H226 lung
NCI-H23 lung = tested on: NCI-H23 lung
NCI-H460 lung = tested on: NCI-H460 lung
NCI-H522 lung = tested on: NCI-H522 lung
OVCAR-3 ovarian = tested on: OVCAR-3 ovarian
OVCAR-4 ovarian = tested on: OVCAR-4 ovarian
OVCAR-5 ovarian = tested on: OVCAR-5 ovarian
OVCAR-8 ovarian = tested on: OVCAR-8 ovarian
RPMI-8226 leukemia = tested on: RPMI-8226 leukemia
RXF 393 renal = tested on: RXF 393 renal
SF-268 CNS = tested on: SF-268 CNS
SF-295 CNS = tested on: SF-295 CNS
SF-539 CNS = tested on: SF-539 CNS
SK-MEL-2 melanoma = tested on: SK-MEL-2 melanoma
SK-OV-3 ovarian = tested on: SK-OV-3 ovarian
SN12C renal = tested on: SN12C renal
SNB-19 CNS = tested on: SNB-19 CNS
SNB-75 CNS = tested on: SNB-75 CNS
SNB-78 CNS = tested on: SNB-78 CNS
SR leukemia = tested on: SR leukemia
SW-620 colon = tested on: SW-620 colon
U251 CNS = tested on: U251 CNS
UACC-257 melanoma = tested on: UACC-257 melanoma
UACC-62 melanoma = tested on: UACC-62 melanoma
UO-31 renal = tested on: UO-31 renal
XF 498 CNS = tested on: XF 498 CNS
HCT-116 colon = tested on: HCT-116 colon
SK-MEL-28 melanoma = tested on: SK-MEL-28 melanoma
SK-MEL-5 melanoma = tested on: SK-MEL-5 melanoma
A498 renal = tested on: A498 renal
TK-10 renal = tested on: TK-10 renal

`C=C1C(=O)O[C@@H]2C1C(OC(C)CCC)[C@@H](O)[C@@H](C)C(O)C1O[C@]1(C)[C@H]2O` (stereo partly specified) was tested, and the outcome (786-0 renal) was “inactive”, the outcome (A549 NSCLC) was “inactive” and the outcome (ACHN renal) was “inactive”. For the same compound, the outcome (CAKI-1 renal) was “inactive”, the outcome (CCRF-CEM leukemia) was “inactive” and the outcome (COLO 205 colon) was “inactive”. For the same compound, the outcome (DLD-1 colon) was “inactive”, the outcome (DMS 114 small cell lung) was “inactive” and the outcome (DMS 273 small cell lung) was “inactive”. The outcome (EKVX NSCLC) was “inactive”, the outcome (HCC-2998 colon) was “inactive” and the outcome (HCT-15 colon) was “inactive”. The outcome (HL-60(TB) leukemia) was “inactive”, the outcome (HOP-62 NSCLC) was “inactive” and the outcome (HOP-92 NSCLC) was “inactive”. The outcome (HT29 colon) was “inactive”, the outcome (IGROV1 ovarian) was “inactive” and the outcome (K-562 leukemia) was “inactive”. The outcome (KM12 colon) was “inactive”, the outcome (KM20L2 colon) was “inactive” and the outcome (LOX IMVI melanoma) was “inactive”. For the same compound, the outcome (LXFL 529 NSCLC) was “inactive”, the outcome (M14 melanoma) was “inactive” and the outcome (M19-MEL melanoma) was “inactive”. The outcome (MALME-3M melanoma) was “inactive”, the outcome (MOLT-4 leukemia) was “inactive” and the outcome (NCI-H226 lung) was “inactive”. The outcome (NCI-H23 lung) was “inactive”, the outcome (NCI-H460 lung) was “inactive” and the outcome (NCI-H522 lung) was “inactive”. The outcome (OVCAR-3 ovarian) was “inactive”, the outcome (OVCAR-4 ovarian) was “inactive” and the outcome (OVCAR-5 ovarian) was “inactive”. For the same compound, the outcome (OVCAR-8 ovarian) was “inactive”, the outcome (RPMI-8226 leukemia) was “inactive” and the outcome (RXF 393 renal) was “inactive”. The outcome (SF-268 CNS) was “inactive”, the outcome (SF-295 CNS) was “inactive” and the outcome (SF-539 CNS) was “inactive”. For the same compound, the outcome (SK-MEL-2 melanoma) was “inactive”, the outcome (SK-OV-3 ovarian) was “inactive” and the outcome (SN12C renal) was “inactive”. The outcome (SNB-19 CNS) was “inactive”, the outcome (SNB-75 CNS) was “inactive” and the outcome (SNB-78 CNS) was “inactive”. The outcome (SR leukemia) was “inactive”, the outcome (SW-620 colon) was “inactive” and the outcome (U251 CNS) was “inactive”. The outcome (UACC-257 melanoma) was “inactive”, the outcome (UACC-62 melanoma) was “inactive” and the outcome (UO-31 renal) was “inactive”. For the same compound, the outcome (XF 498 CNS) was “inactive”.

With `CC1(C)CC(/C=C2/OC(=O)c3ccccc32)=C(C(N)=O)C(=O)O1` the TGI (786-0 renal) was greater than 100 µM, the TGI (A549 NSCLC) was greater than 100 µM and the TGI (CAKI-1 renal) was greater than 100 µM. For the same compound, the TGI (CCRF-CEM leukemia) was greater than 100 µM, the TGI (COLO 205 colon) was greater than 100 µM and the TGI (DLD-1 colon) was greater than 100 µM. For the same compound, the TGI (DMS 114 small cell lung) was greater than 100 µM, the TGI (DMS 273 small cell lung) was greater than 100 µM and the TGI (EKVX NSCLC) was greater than 100 µM. The TGI (HCC-2998 colon) was greater than 100 µM, the TGI (HCT-116 colon) was greater than 100 µM and the TGI (HCT-15 colon) was greater than 100 µM. It also gave a TGI (HOP-62 NSCLC) greater than 100 µM, a TGI (HT29 colon) greater than 100 µM and a TGI (IGROV1 ovarian) greater than 100 µM. For the same compound, the TGI (K-562 leukemia) was greater than 100 µM, the TGI (KM12 colon) was greater than 100 µM and the TGI (KM20L2 colon) was greater than 100 µM. For the same compound, the TGI (LOX IMVI melanoma) was greater than 100 µM, the TGI (LXFL 529 NSCLC) was greater than 100 µM and the TGI (M14 melanoma) was greater than 100 µM. It also gave a TGI (M19-MEL melanoma) greater than 100 µM, a TGI (MALME-3M melanoma) greater than 100 µM and a TGI (MOLT-4 leukemia) greater than 100 µM. The TGI (NCI-H226 lung) was greater than 100 µM, the TGI (NCI-H23 lung) was greater than 100 µM and the TGI (NCI-H460 lung) was greater than 100 µM. The TGI (NCI-H522 lung) was greater than 100 µM, the TGI (OVCAR-3 ovarian) was greater than 100 µM and the TGI (OVCAR-4 ovarian) was greater than 100 µM. It also gave a TGI (OVCAR-5 ovarian) greater than 100 µM, a TGI (OVCAR-8 ovarian) greater than 100 µM and a TGI (RPMI-8226 leukemia) greater than 100 µM. The TGI (SF-268 CNS) was greater than 100 µM, the TGI (SF-295 CNS) was greater than 100 µM and the TGI (SF-539 CNS) was greater than 100 µM. The TGI (SK-MEL-2 melanoma) was greater than 100 µM, the TGI (SK-MEL-28 melanoma) was greater than 100 µM and the TGI (SK-MEL-5 melanoma) was greater than 100 µM. For the same compound, the TGI (SK-OV-3 ovarian) was greater than 100 µM, the TGI (SN12C renal) was greater than 100 µM and the TGI (SNB-19 CNS) was greater than 100 µM. The TGI (SNB-75 CNS) was greater than 100 µM, the TGI (SNB-78 CNS) was greater than 100 µM and the TGI (SR leukemia) was greater than 100 µM. The TGI (SW-620 colon) was greater than 100 µM, the TGI (U251 CNS) was greater than 100 µM and the TGI (UACC-257 melanoma) was greater than 100 µM. For the same compound, the TGI (UACC-62 melanoma) was greater than 100 µM, the TGI (UO-31 renal) was greater than 100 µM and the TGI (XF 498 CNS) was greater than 100 µM.

For `NC(N)=NS(=O)(=O)c1ccc(NC(=O)c2cccc3cc4ccccc4nc23)cc1`, the TGI (786-0 renal) was greater than 100 µM, the TGI (A498 renal) was greater than 100 µM and the TGI (A549 NSCLC) was greater than 100 µM. It also gave a TGI (ACHN renal) greater than 100 µM, a TGI (CAKI-1 renal) greater than 100 µM and a TGI (CCRF-CEM leukemia) greater than 100 µM. The TGI (COLO 205 colon) was greater than 100 µM, the TGI (DLD-1 colon) was greater than 100 µM and the TGI (DMS 114 small cell lung) was greater than 100 µM. It also gave a TGI (DMS 273 small cell lung) greater than 100 µM, a TGI (EKVX NSCLC) greater than 100 µM and a TGI (HCT-116 colon) greater than 100 µM. For the same compound, the TGI (HCT-15 colon) was greater than 100 µM, the TGI (HOP-62 NSCLC) was greater than 100 µM and the TGI (HT29 colon) was greater than 100 µM. It also gave a TGI (IGROV1 ovarian) greater than 100 µM, a TGI (K-562 leukemia) greater than 100 µM and a TGI (KM12 colon) greater than 100 µM. For the same compound, the TGI (KM20L2 colon) was greater than 100 µM, the TGI (LOX IMVI melanoma) was greater than 100 µM and the TGI (LXFL 529 NSCLC) was greater than 100 µM. For the same compound, the TGI (M14 melanoma) was greater than 100 µM, the TGI (M19-MEL melanoma) was greater than 100 µM and the TGI (MALME-3M melanoma) was greater than 100 µM. The TGI (MOLT-4 leukemia) was greater than 100 µM, the TGI (NCI-H226 lung) was greater than 100 µM and the TGI (NCI-H23 lung) was greater than 100 µM. For the same compound, the TGI (NCI-H460 lung) was greater than 100 µM, the TGI (NCI-H522 lung) was greater than 100 µM and the TGI (OVCAR-3 ovarian) was greater than 100 µM. For the same compound, the TGI (OVCAR-4 ovarian) was 85.7 µM, the TGI (OVCAR-5 ovarian) was greater than 100 µM and the TGI (OVCAR-8 ovarian) was greater than 100 µM. For the same compound, the TGI (RPMI-8226 leukemia) was greater than 100 µM, the TGI (RXF 393 renal) was greater than 100 µM and the TGI (SF-268 CNS) was greater than 100 µM. It also gave a TGI (SF-295 CNS) greater than 100 µM, a TGI (SF-539 CNS) greater than 100 µM and a TGI (SK-MEL-2 melanoma) greater than 100 µM. It also gave a TGI (SK-MEL-28 melanoma) greater than 100 µM, a TGI (SK-MEL-5 melanoma) greater than 100 µM and a TGI (SK-OV-3 ovarian) greater than 100 µM. The TGI (SN12C renal) was greater than 100 µM, the TGI (SNB-19 CNS) was 31.8 µM and the TGI (SNB-75 CNS) was greater than 100 µM. The TGI (SNB-78 CNS) was greater than 100 µM, the TGI (SW-620 colon) was greater than 100 µM and the TGI (TK-10 renal) was greater than 100 µM. The TGI (U251 CNS) was greater than 100 µM, the TGI (UACC-257 melanoma) was greater than 100 µM and the TGI (UACC-62 melanoma) was greater than 100 µM. For the same compound, the TGI (UO-31 renal) was greater than 100 µM and the TGI (XF 498 CNS) was greater than 100 µM.
